Active and inactive are the calls of the source.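 The calls were made as follows: active = EC50 no more than a set limit of log units above the highest dose; inactive = the rest.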
These compounds were tested against S. pyogenes SKKanGAS, kanamycin survival, BacTiterGlo, 6 h (assay: S. pyogenes SKKanGAS kanamycin growth inhibitors – SKKanGAS strain, luminescence, dose confirmation, streptokinase promoter inhibitor project, dose response (AID 1902);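 also: lower survival reflects blocked streptokinase promoter driving kanamycin resistance gene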).

SMILES	EC50
c1ccc(/N=C2\N=C(Nc3ccccn3)c3ccccc32)nc1	2.44 µM
COc1ccc(Cl)cc1C(=O)NNC(=S)NC(=O)c1cc(-c2ccccc2)nc2ccccc12	0.081 µM
CC(C)C[C@H](NC(=O)N1CC(=O)Nc2ccccc21)C(=O)N[C@H](C(=O)O)c1ccccc1	> 15 µM (inactive)
O=C(COc1c(Cl)cccc1Cl)Nc1ccccc1N1CCCC1	6.24 µM
O=C1NC(=O)/C(=C/c2ccccc2Oc2ccc(Cl)cc2)S1	6.33 µM
O=C(NNC1=C(C(=O)C(F)(F)F)CCC1)c1ccc(Br)cc1	0.926 µM
C/C(=N\NC(=O)c1cc(Br)ccc1O)c1cccc(NC(=O)c2ccccc2F)c1	2.87 µM
Cc1noc(C)c1CSc1nc2sc(C)c(C)c2c(=O)n1C1CCCC1	2.94 µM
Clc1ccc(C2=CSC3=Nc4cccc5cccc(c45)N23)cc1	7.43 µM
COC(=O)/C=C1\SC(=Nc2ccc(Cl)c(Cl)c2)NC1=O	8.93 µM
COCCCNC(=S)NNC(=S)Nc1cccc(Cl)c1	> 15 µM (inactive)
CSc1nc2nccc(-c3ccc(-c4ccccc4)cc3)n2n1	3.08 µM
Cc1cccc(C)c1NC(=O)CN(C)CC(=O)Nc1sc2c(c1C(N)=O)CCC2	> 15 µM (inactive)
CCOC(=O)c1sc2nccc(N(C)C)c2c1N=CNOCc1c(F)cccc1Cl	5.16 µM
O=C(N/N=C/c1cc(Br)ccc1O)C(=O)Nc1ccccc1OC(F)(F)C(F)F	1.44 µM
N#CC1=C(N)OC2=C(CCc3ccccc32)C1c1ccccc1Cl (stereo unspecified)	3.82 µM
CC/C(=N\NC(=S)Nc1cccc(C)c1)c1ccccc1	7.96 µM
CCS(=O)(=O)c1nc(S(=O)(=O)c2ccc(C)cc2)c(NCCN2CCOCC2)s1	> 15 µM (inactive)
Clc1ccc(-c2csc(Nc3ccccc3)[n+]2Cc2ccco2)c(Cl)c1	3.35 µM
NC(=O)N=Nc1c2[nH]c3ccccc3nc-2c2ccccc12	5.32 µM
NNc1nc(-c2ccccc2)c2cc(Br)ccc2n1	9.12 µM
Cc1cc(/C=C2\SC(=S)N(C)C2=O)c(C)n1-c1ccccc1O	6.72 µM
COc1cccc(C(=O)Nc2nnc(-c3ccc(F)cc3)o2)c1	1.28 µM
C=CCOC(=O)C1=C(C)NC(SCC)=C(C#N)C1c1ccc(Cl)cc1 (stereo unspecified)	5.92 µM
CCn1c(=O)c(C(=O)NNC(=O)Cc2ccccc2)c(O)c2ccccc21	4.71 µM
O=C(CCc1ccccc1)NNC(=S)NC(=O)c1ccccc1	1.81 µM

SMILES	EC50
CCCCSc1ccc2nc(-c3ccc(C#N)cc3)cn2c1	7.72 µM
CCCc1ccc(-c2cc(C(=O)N/N=C/c3ccc([N+](=O)[O-])o3)c3ccccc3n2)cc1	1.74 µM
Oc1ccc(/C=N/Nc2ccc3ccccc3c2)c(O)c1	7.53 µM
CC(C)Cc1nnc(NC(=O)CCC(=O)N2CCN(c3ccccc3)CC2)s1	> 15 µM (inactive)
COc1cccc(-c2nnc(Nc3nc4c(F)cccc4s3)o2)c1	0.502 µM
CCN(CC)c1ccc(/C=N/Nc2nc3ccccc3[nH]2)c(O)c1	3.17 µM
O=[N+]([O-])c1ccc(-c2nc(-c3cccs3)c(-c3cccs3)[nH]2)cc1	9.57 µM
Oc1c(CN2CCc3ccccc3C2)cc(Cl)c2cccnc12	2.15 µM
Cc1ccc(C)c(CSC2=NCCN2S(=O)(=O)c2ccccc2)c1	15.7 µM
CC1Oc2cc3oc4c(O)c5c(cc4c(=O)c3c(O)c2C1(C)C)C=CC(C)(C)O5 (stereo unspecified)	2.48 µM
c1ccc(OCc2nc3c4c(ncn3n2)-c2ccccc2CC42CCCC2)cc1	11.7 µM
Oc1nc(Nc2ccccc2)sc1/C=C1\C=Nc2ccccc21	9.16 µM
O=S(=O)(Nc1cccc2cccnc12)c1ccccc1	4.39 µM
CCc1ccc(/C=C2\SC(=S)N(CCCC(=O)Nc3ccccc3C(=O)O)C2=O)cc1	3.35 µM
Cc1nn(-c2ccccc2)c(Cl)c1C1C(C#N)=C(N)OC2=C1C(=O)CCC2 (stereo unspecified)	1.25 µM
O=C(Nc1cccc(C(F)(F)F)c1)c1cc2c(=O)c3ccccc3oc2nc1C(F)(F)F	7.27 µM
O=C(N/N=C/c1cc([N+](=O)[O-])ccc1O)c1cc(-c2ccccc2)nc2ccccc12	0.603 µM
CC(C)C[C@H](NC(=O)c1[nH]cnc1C(=O)N[C@@H](C)C(=O)OC(C)(C)C)C(=O)OCc1ccccc1	7.06 µM
CCn1cc(C(=O)OCC(=O)c2cc(C)n(-c3cccc(C(F)(F)F)c3)c2C)c(=O)c2ccc(C)nc21	9.92 µM
CSc1nsc2nc(=O)c(/C=C3\C=Nc4ccccc43)c(N)n12	3.57 µM
CC(C)C(=O)NC(c1ccccc1)c1cc([N+](=O)[O-])c2cccnc2c1O (stereo unspecified)	2.48 µM
COc1ccc(-n2c(SCC(=O)Nc3ccccc3)nc(O)cc2=O)cc1	15.2 µM
COc1cc(OC)cc(C(=O)Nc2nnc(NC(=S)Nc3ccccc3)s2)c1	5.13 µM
Cc1ccc(Nc2cc(C)nn2-c2nc(C)cc(C)n2)cc1	6.47 µM
CC(=O)O[C@H]1CC[C@]2(C)[C@H]3CC=C4[C@@H]5[C@@H](C)[C@H](C)CC[C@]5(C(=O)O)CC[C@@]4(C)[C@]3(C)CC[C@H]2C1(C)C	2.83 µM
COc1cccc(N/N=C/c2cccc(Br)c2O)c1	15.6 µM

SMILES	EC50
COc1ccc(NC(=S)Nc2nc(CC(=O)Nc3ccccc3OC)cs2)cc1	8.89 µM
O=C(N/N=C/c1c(O)n(-c2ccccc2Cl)c(=O)c2ccccc12)C1COc2ccccc2O1 (stereo unspecified)	3.74 µM
CC(NC(=O)Nc1nnc(C(F)(F)F)s1)(C(F)(F)F)C(F)(F)F	2.97 µM
C/C(=N/NC(=O)c1cc2ccccc2cc1O)C1C(=O)c2ccccc2C1=O	1.57 µM
CC(C)=CCCC1(C)C=Cc2c(ccc3c2[nH]c2cc(O)c(C)cc23)O1 (stereo unspecified)	3.04 µM
Cc1cc(C)c2nc(NNC(=O)c3ccc(S(=O)(=O)N4CC(C)CC(C)C4)cc3)sc2c1 (stereo unspecified)	0.815 µM
O=C(Nc1ccc(F)cc1)c1nc2c(nnn2Cc2cccc3ccccc23)c(=O)[nH]1	2.44 µM
CC(C)(C)C(=O)NC(=S)NNC(=O)c1ccc(Cl)cc1Cl	0.402 µM
S=c1[nH]nc(C2CCCCC2)n1/N=C/c1c(Cl)cccc1Cl	8.36 µM
Cn1c2ccccc2c(=O)c2c(=O)n(-c3ccc(F)cc3)c(-c3cccs3)nc21	4.76 µM
CN(C)[C@@H]1C(=O)C(C(N)=O)=C(O)[C@@]2(O)C(=O)C3=C(O)c4c(O)cccc4[C@@](C)(O)C3C[C@@H]12 (stereo partly specified)	0.096 µM
Cc1c(Cl)c(C(F)F)nn1CC(=O)NC1C(=O)N2C(C(=O)O)=C(CSc3nnnn3C)CSC12 (stereo unspecified)	< 0.06 µM
Cc1cc(/C=C2\SC(=O)NC2=O)c(C)n1-c1ccc(N2CCOCC2)cc1	1.58 µM
O=C(COc1ccccc1-c1ccccc1)N/N=C/c1ccc2ccccc2c1	6.47 µM
Cc1ccc(C(NC(=O)NC(C)c2ccccc2)C(Cl)(Cl)Cl)cc1F (stereo unspecified)	6.41 µM
CC(C)(C)c1cc(C(=O)Nc2ccc(F)cc2)n(Cc2ccc(F)cc2)n1	3.77 µM
Cc1ccc(C[n+]2c(-c3ccc(C)cc3)cc(-c3ccc(C)cc3)cc2-c2ccc(C)cc2)cc1	4.06 µM
COc1ccc(S(=O)(=O)N/N=C(/C)c2ccncc2)cc1	> 15 µM (inactive)
OCCN(CCO)c1ccc(C(c2ccccc2Cl)c2ccc(N(CCO)CCO)cc2Cl)c(Cl)c1	5.06 µM
CCOc1ccc2nc(NC(=O)c3ccccn3)sc2c1	1.79 µM
CCCCCCOC(=O)/C=C/c1c(C)[nH]c(=O)[nH]c1=O	0.475 µM
CCOC(=O)c1nnn(-c2nonc2-n2cccc2)c1CN1CCC(C)CC1	8.02 µM
CCOC(=O)c1[nH]c2ccc(F)cc2c1NC(=O)c1ccccc1C(=O)O	> 15 µM (inactive)
CCCCCCCCCCOC(=O)Cn1c(COc2ccccc2)[n+](C)c2ccccc21	7.96 µM

From PubChem BioAssay AID1902 (Broad Institute, 2009)
